Assay type in all cases: biochemical
Holding throughout (settings): tested at 10 uM, read-out: percent inhibition of the kinase activity

One assay has as its target T1, IKKB (Homo sapiens, UniProt O14920).
T1 construct: purchased Caliper LifeSciences
Briefly: ProfilerPro Kinase Selectivity, IKKB. On the procedure: (§1) Kinome selectivity profiling was performed using two example compounds according to the manufacturer's instructions using Caliper LifeSciences' ProfilerPro Kinase Selectivity Assay Kits. Compounds prepared in Examples 1 and 7 were tested at 10 uM and data were recorded using the Caliper LabChip® EZ Reader™. Each compounds' percent inhibition of the kinase activity measured in this manner is reported in the following lists.

For the next assay, the target named is T2, DAPK1 (Homo sapiens, UniProt P53355).
T2 construct: purchased Caliper LifeSciences
Briefly: ProfilerPro Kinase Selectivity, DAPK1. The method, then: as §1

Another assay concerns the target T3, RET Y791F (Homo sapiens, UniProt P07949, Y791F).
T3 construct: purchased Caliper LifeSciences
The assay is described as follows: ProfilerPro Kinase Selectivity, RET Y791F. On the procedure:
as §1

In another assay the target is T4, PAK3 (Homo sapiens, UniProt O75914).
T4 construct: purchased Caliper LifeSciences
T4 sequence (O75914 whole entry, species assumed): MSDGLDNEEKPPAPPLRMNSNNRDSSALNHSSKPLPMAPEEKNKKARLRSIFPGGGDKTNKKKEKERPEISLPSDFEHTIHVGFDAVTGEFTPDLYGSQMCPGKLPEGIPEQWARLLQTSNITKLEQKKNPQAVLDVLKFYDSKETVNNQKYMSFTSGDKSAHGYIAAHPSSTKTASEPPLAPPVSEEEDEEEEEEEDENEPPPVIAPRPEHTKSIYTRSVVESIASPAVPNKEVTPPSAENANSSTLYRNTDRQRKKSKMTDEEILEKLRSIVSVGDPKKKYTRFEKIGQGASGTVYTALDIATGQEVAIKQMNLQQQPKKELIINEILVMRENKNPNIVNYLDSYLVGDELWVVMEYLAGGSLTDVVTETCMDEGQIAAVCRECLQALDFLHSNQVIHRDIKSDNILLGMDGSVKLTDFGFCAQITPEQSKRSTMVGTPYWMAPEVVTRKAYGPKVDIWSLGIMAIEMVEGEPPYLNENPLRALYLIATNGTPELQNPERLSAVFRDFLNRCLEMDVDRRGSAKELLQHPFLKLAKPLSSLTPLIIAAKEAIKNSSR
Briefly: ProfilerPro Kinase Selectivity, PAK3. The method, then: as §1

Another assay has as its target T5, SYK (Homo sapiens, UniProt P43405).
T5 construct: purchased Caliper LifeSciences
The assay is described as follows: ProfilerPro Kinase Selectivity, SYK. On the procedure: as §1

For a further assay, the target named is T6, LTK (Homo sapiens, UniProt P29376).
T6 construct: purchased Caliper LifeSciences
Briefly: ProfilerPro Kinase Selectivity, LTK. The method, then:
as §1

The target in the next assay is T7, AKT3 (Homo sapiens, UniProt Q9Y243).
T7 construct: purchased Caliper LifeSciences
Briefly: ProfilerPro Kinase Selectivity, AKT3. The method, then: as §1

The target in a further assay is T8, PIM1 (Homo sapiens, UniProt P11309).
T8 construct: purchased Caliper LifeSciences
Briefly: ProfilerPro Kinase Selectivity, PIM1. The method, then: as §1

In another assay the target is T9, PKD1 (Homo sapiens, UniProt Q15139).
T9 construct: purchased Caliper LifeSciences
The assay is described as follows: ProfilerPro Kinase Selectivity, PKD1. On the procedure: as §1

The next assay has as its target T10, MER (Homo sapiens, UniProt Q12866).
T10 construct: purchased Caliper LifeSciences
Briefly: ProfilerPro Kinase Selectivity, MER. The method, then:
as §1

A further assay deals with T11, FLT1 (Homo sapiens, UniProt P17948).
T11 construct: purchased Caliper LifeSciences
T11 sequence (P17948 27-1338, species assumed): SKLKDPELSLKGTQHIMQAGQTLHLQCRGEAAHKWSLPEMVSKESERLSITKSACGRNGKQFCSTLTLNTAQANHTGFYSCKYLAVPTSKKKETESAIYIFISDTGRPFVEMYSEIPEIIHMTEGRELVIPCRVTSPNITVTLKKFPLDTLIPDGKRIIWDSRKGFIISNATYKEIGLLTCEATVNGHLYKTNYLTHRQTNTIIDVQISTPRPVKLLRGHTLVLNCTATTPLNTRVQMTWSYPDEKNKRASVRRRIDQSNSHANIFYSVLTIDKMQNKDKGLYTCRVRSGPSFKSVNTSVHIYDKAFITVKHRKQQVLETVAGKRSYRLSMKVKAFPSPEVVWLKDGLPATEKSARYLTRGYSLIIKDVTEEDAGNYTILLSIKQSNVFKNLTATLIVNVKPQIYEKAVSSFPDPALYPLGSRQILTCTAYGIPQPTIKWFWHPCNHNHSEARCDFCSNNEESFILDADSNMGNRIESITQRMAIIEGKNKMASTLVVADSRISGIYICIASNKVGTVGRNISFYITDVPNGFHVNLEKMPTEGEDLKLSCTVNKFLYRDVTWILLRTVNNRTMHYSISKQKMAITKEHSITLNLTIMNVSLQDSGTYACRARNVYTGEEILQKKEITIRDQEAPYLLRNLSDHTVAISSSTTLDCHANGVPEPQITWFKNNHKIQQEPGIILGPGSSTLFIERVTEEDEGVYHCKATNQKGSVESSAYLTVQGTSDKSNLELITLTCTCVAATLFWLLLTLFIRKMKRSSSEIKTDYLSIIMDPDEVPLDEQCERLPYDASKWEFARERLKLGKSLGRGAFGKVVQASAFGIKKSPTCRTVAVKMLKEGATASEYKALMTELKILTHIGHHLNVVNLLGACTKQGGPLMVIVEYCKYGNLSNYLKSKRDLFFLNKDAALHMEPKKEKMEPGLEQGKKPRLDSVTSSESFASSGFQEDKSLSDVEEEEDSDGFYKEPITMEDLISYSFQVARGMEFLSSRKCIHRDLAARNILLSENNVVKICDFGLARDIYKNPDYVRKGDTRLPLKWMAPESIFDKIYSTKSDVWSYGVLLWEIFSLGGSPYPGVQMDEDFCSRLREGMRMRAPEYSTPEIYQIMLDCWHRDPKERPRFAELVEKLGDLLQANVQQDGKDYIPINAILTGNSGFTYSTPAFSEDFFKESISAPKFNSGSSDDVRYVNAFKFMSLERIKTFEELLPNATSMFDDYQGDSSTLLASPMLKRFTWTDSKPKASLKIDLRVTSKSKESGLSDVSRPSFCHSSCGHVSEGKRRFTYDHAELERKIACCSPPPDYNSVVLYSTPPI
The assay is described as follows: ProfilerPro Kinase Selectivity, FLT1. The method, then:
as §1

For the next assay, the target named is T12, ARG (Homo sapiens, UniProt P42684).
T12 construct: purchased Caliper LifeSciences
Briefly: ProfilerPro Kinase Selectivity, ARG. On the procedure: as §1

For a further assay, the target named is T13, AURB (Homo sapiens, UniProt Q96GD4).
T13 construct: purchased Caliper LifeSciences
The assay is described as follows: ProfilerPro Kinase Selectivity, AURB. On the procedure: as §1

Another assay has as its target T14, PAK5 (Homo sapiens, UniProt Q9P286).
T14 construct: purchased Caliper LifeSciences
The assay is described as follows: ProfilerPro Kinase Selectivity, PAK5. On the procedure: as §1

The next assay deals with T15, EGFR (Homo sapiens, UniProt P00533).
T15 construct: purchased Caliper LifeSciences
T15 sequence (P00533 25-1210, species assumed): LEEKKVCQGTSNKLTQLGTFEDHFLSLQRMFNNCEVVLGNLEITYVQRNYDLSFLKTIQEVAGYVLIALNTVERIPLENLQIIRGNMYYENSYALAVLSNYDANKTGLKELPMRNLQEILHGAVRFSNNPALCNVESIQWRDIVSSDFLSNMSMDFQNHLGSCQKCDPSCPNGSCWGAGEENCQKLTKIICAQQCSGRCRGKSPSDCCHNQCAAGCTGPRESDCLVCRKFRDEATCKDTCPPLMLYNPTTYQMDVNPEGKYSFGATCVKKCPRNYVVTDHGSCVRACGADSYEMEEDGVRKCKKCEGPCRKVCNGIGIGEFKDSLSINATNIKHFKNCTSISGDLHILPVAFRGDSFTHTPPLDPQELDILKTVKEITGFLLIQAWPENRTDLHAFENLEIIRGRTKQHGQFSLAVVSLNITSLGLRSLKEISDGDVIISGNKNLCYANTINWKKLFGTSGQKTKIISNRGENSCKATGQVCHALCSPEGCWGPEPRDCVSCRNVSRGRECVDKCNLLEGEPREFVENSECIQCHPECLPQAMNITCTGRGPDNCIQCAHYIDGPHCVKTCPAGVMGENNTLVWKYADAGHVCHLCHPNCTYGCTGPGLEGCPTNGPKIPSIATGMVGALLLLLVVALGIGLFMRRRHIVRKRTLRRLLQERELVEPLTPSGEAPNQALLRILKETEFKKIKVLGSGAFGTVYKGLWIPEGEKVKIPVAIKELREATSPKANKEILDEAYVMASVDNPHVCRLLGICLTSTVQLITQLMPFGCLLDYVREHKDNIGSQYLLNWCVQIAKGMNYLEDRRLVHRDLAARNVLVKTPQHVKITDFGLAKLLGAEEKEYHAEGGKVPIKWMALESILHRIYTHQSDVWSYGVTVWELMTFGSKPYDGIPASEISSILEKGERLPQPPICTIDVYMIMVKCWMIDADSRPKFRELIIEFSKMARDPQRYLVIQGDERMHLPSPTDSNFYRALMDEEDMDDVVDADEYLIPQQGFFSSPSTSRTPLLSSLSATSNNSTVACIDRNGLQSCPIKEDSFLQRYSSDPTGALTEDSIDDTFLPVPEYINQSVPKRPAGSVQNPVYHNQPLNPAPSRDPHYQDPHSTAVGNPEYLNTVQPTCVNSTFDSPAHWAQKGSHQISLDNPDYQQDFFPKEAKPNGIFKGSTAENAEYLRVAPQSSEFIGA
Briefly: ProfilerPro Kinase Selectivity, EGFR. The method, then: as §1

T1 sequence (O14920 whole entry, species assumed): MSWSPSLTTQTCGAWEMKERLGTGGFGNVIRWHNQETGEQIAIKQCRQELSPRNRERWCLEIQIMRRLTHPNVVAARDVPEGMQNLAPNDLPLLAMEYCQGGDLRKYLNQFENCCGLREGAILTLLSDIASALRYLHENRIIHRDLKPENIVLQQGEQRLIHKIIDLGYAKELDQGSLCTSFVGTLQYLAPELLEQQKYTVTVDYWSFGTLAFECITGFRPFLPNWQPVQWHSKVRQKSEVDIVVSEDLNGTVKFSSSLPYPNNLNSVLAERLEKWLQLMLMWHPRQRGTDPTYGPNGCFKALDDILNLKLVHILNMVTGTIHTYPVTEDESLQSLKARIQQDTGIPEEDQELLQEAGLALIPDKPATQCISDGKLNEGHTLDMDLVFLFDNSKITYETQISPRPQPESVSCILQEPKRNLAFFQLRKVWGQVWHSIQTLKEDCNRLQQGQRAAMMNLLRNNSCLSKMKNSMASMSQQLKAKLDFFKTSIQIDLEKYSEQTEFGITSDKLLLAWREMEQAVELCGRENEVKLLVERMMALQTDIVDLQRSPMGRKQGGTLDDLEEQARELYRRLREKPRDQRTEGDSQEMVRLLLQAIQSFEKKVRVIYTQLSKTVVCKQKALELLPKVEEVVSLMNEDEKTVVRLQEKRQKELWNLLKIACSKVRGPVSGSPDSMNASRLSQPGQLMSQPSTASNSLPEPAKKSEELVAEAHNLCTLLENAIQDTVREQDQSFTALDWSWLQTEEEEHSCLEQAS
T3 sequence (P07949 29-1114 Y791F): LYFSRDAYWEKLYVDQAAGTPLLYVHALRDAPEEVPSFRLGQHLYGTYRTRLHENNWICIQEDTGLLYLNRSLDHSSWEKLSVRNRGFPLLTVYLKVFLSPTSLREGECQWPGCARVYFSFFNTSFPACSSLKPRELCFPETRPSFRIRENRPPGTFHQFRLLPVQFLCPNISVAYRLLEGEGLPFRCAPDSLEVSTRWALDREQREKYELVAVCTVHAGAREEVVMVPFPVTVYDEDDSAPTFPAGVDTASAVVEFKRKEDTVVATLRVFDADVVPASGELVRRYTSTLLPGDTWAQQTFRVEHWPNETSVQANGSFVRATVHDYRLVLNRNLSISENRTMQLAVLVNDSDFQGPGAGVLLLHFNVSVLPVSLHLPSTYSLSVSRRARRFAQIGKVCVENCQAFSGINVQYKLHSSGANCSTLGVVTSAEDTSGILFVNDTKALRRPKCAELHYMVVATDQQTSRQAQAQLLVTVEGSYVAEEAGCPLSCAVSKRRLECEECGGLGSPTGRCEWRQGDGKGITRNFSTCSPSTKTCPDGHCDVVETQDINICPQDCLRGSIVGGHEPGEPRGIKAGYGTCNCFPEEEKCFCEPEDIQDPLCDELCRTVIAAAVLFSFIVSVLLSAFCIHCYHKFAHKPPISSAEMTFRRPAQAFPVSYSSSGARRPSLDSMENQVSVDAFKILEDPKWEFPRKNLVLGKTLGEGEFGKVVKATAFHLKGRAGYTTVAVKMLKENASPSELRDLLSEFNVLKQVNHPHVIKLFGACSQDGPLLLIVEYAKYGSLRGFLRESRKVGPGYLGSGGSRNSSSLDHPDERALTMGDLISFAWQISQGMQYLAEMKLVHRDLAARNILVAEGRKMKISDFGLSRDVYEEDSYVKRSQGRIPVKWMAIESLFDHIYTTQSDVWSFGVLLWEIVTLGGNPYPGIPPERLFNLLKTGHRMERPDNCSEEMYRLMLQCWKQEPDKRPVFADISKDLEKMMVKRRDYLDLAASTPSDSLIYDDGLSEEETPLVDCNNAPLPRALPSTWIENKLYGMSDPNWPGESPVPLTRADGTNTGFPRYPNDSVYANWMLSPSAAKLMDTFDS

Take `CC1(C)CC(=O)c2c(SC3CCCC3)sc(-c3cc[nH]n3)c2C1` [Example 7, 3-(Cyclopentylsulfanyl)-6,6-dimethyl-1-(1H-pyrazol-3-yl)-6,7-dihydro-2-benzothiophen-4(5H)-one]: the inhibition at 10 µM is 0.5% at IKKB; -2% on DAPK1; 11.1% on RET Y791F; -170% on PAK3; 5.8% at SYK; 19.5% at LTK. Besides, the inhibition at 10 µM at AKT3 is -2.7%; on PIM1, -16.3%; on PKD1, -10.6%; at MER it was 8%; at FLT1, 11.8%; on ARG, 8.6%. In addition, the inhibition at 10 µM on AURB is -3.1%; at PAK5, -4.4%; at EGFR, 2.2%.

Regarding `CSc1sc(-c2cc[nH]n2)c2c1C(=O)CCC2` [Example 1, 3-(Methylsulfanyl)-1-(1H-pyrazol-3-yl)-6,7-dihydro-2-benzothiophen-4(5H)-one], the inhibition at 10 µM on IKKB was 9.3%; at DAPK1, 7.2%; on RET Y791F, 37.6%; at PAK3, -13.1%; on SYK, 49.9%; on LTK, 16%. Besides, the inhibition at 10 µM on AKT3 is -2.2%; at PIM1, 26.3%; on PKD1, 5.5%; at MER, 23.8%; at FLT1 it was 1.2%; at ARG, -6%. The figures for the inhibition at 10 µM at AURB, on PAK5 and at EGFR were 57.7%, -0.6% and -3.1%, respectively.

(Values after patent US20130338106A1, “COMPOUNDS INHIBITING LEUCINE-RICH REPEAT KINASE ENZYME ACTIVITY” (priority 2011, published 2013).)
